Source: US4820715A, “Anti-emetic quinuclidinyl benzamides” (Bristol-Myers Company, priority 1987, dated 1989)
Where two headings read alike, the source gives them in different places.

Key:
[1] = tested on: Apomorphine-Induced Emesis; assay: Antagonism of Apomorphine-Induced Emesis in Dogs; type: in vivo, beagle dogs; details: Canis lupus familiaris, sc, read-out: Antagonism of Apomorphine-Induced Emesis in the Dog ED50
Procedure: Unfasted beagle dogs of both sexes were used as test subjects. Test compounds and apomorphine were each administered subcutaneously as aqueous solutions, with the test compound being administered 30 minutes prior to the administration of the apormorphine.
Apomorphine was administered at a dose of 0.3 mg/kg. […] All tests were run in at least two dogs.

[2] = tested on: Cisplatin-Induced Emesis; assay: Antagonism of Cisplatin-Induced Emesis in the Ferret; type: in vivo, Fitch ferrets; details: Mustela putorius, iv, 4 h, read-out: Antagonism of Cisplatin-Induced Emesis in the Ferret, % Protection
Excerpt: The ventral and dorsal area of the neck is shaved and a 3 cm incision is made. The left jugular vein is exposed and ligated with a silk suture at the cephalic end. The indwelling catheter is constructed of Silastic tubing 18 cm in length (0.020 inch I.D.×0.037 inch O.D.) with a 2 cm polyethylene sleeve (0.045 inch I.D.×0.062 inch O.D.) filled with heparin (1000 units/ml) and sealed at the exposed end with a 23 gauge×1 inch needle crimped at both ends. A small cut is made in the jugular and the catheter inserted, allowing the free end to be delivered through a 13 gauge×5 cm trochar under the skin and attached to the nape of the neck with a silk suture. The ferrets are housed in individual cages and allowed 2-4 days recovery before testing. On the test day, the test compounds were administered i.v. […] The cisplatin solution was prepared by adding 70° C. physiological saline, stirring and sonicating until dissolved. The resulting solution (4 mg/ml) was maintained at 40° C. and administered i.v. ([…]) via the catheter. Following administration of cisplatin, the ferrets were observed continuously for four hours and emetic episodes recorded. Two or more emetic episodes within a one-minutes period was considered as a single episode. The ferrets were euthanized with T-61 i.v. at the termination of the experiment, and proper placement of the catheter was verified.

[3] = tested on: field-stimulated guinea pig ileum; assay: Gastrokinetic Activity: contraction of field-stimulated guinea pig ileum preparations; set-up: species or system guinea pig (Hartley); details: Cavia porcellus
Procedure: This activity is considered to be correlated with gastrokinetic (prokinetic) activity in vivo, i.e. enhancement of gastric motility and gastric emptying.
Normal, male guinea pigs (Hartley; Charles River) weighing […] are sacrificed by cervical dislocation. The terminal portion of the ileum was removed after discarding a 10 cm segment nearest to the ileocecal junction. The strips, 3-4 cm in length, were mounted in a 20 ml organ bath containing Krebs physiological buffer solution. The buffer was bubbled with 95% O2 -5% CO2 and kept at 37° C. The resting tension was adjusted to 1.0 g, and the tissues were equilibrated without stimulation for 15 minutes. For electrical stimulation, a platinum wire (cathode) was threaded up through the lumen and another platinum wire (anode) was attached to the glass rod that suspended the muscle. Tissues were stimulated coaxially at 1.5 times the voltage necessary to produce maximum twitch height, with single pulses, 0.5 msec in duration, delivered once every 10 seconds. After the 15 minute equilibration period (without stimulation), the stimulator (Grass S88 Stimulator) was turned on and the tissues were allowed to stabilize for approximately 1 hour, or until the twitch height remained constant, with washes every 20 minutes.

[4] = s.c. 30 minutes prior to apomorphine 0.3 mg/kg, dog

With `CCN(CC)CCNC(=O)c1cc(Cl)c(N)cc1OC(C)C(C)O` (mixture of isomers) [Example 41, 4-Amino-5-chloro-N-[2-(diethylamino)ethyl]-2-[(2-hydroxy)but-3-yl]oxybenzamide (mixture of threo and erythro isomers)] as the compound, how does the ED50 [1, 4] read?
The ED50 was over 3 mg/kg.

What about the inhibition in vivo at 3 mg/kg ([2]; 3 mg/kg, i.v. × 2) of the same compound?
Its inhibition in vivo at 3 mg/kg is 81%.

`O=c1[nH]c2ccccc2n1CCCN1CCC(n2c(=O)[nH]c3cc(Cl)ccc32)CC1` [Domperidone, reference compound] was tested. Which ED50 [1] did it give?
The ED50 was 0.2 mg/kg.

What about the inhibition in vivo at 3 mg/kg [2] of the same compound?
Its inhibition in vivo at 3 mg/kg is 50%.

How did the ED50 [1, 4] turn out when `CCN(CC)CCNC(=O)c1cc(Cl)c(N)cc1OCCOC` [Example 1, 4-Amino-5-chloro-N-[2-(diethylamino)ethyl]-2-(2-methoxyethoxy)benzamide] was run?
Its ED50 is over 3 mg/kg.

And the inhibition in vivo at 3 mg/kg ([2]; 3 mg/kg, i.v. × 2)?
The inhibition in vivo at 3 mg/kg was 76%.

For `CCN(CC)CCNC(=O)c1cc(Cl)c(N)cc1OCCO` [Example 2, 4-Amino-5-chloro-N-[2-(diethylamino)ethyl]-2-(2-hydroxyethoxy)benzamide], which ED50 [1, 4] is on record?
The ED50 was over 3 mg/kg.

What about the inhibition in vivo at 3 mg/kg ([2]; 3 mg/kg, i.v. × 2) of the same compound?
The inhibition in vivo at 3 mg/kg was 68%.

`CCN(CC)CCNC(=O)c1cc(Cl)c(N)cc1OCC(OC)OC` [Example 3, 4-Amino-5-chloro-N-[2-(diethylamino)ethyl]-2-(2,2-dimethoxyethoxy)benzamide] was tested. Which ED50 [1, 4] did it give?
Its ED50 is over 3 mg/kg.

And the inhibition in vivo at 3 mg/kg ([2]; 3 mg/kg, i.v. × 2)?
Its inhibition in vivo at 3 mg/kg is 82%.

Which results are given for `CCN(CC)CCNC(=O)c1cc(Cl)c(N)cc1OCC(C)=O` [Example 5, 4-Amino-5-chloro-N-[2-(diethylamino)ethyl]-2-(2-propanon-1-yl)oxybenzamide]?
ED50 [1, 4]: > 3 mg/kg; inhibition in vivo at 3 mg/kg ([2]; 3 mg/kg, i.v. × 2): 90%

With `CCN(CC)CCNC(=O)c1cc(Cl)c(N)cc1OCC(=O)c1ccccc1` [Example 6, 4-Amino-2-(2-phenyl-2-oxoethoxy)-5-chloro-N-[2-(diethylamino)ethyl]benzamid] as the compound, how does the ED50 [1, 4] read?
Its ED50 is over 3 mg/kg.

And the inhibition in vivo at 3 mg/kg ([2]; 3 mg/kg, i.v. × 2)?
Its inhibition in vivo at 3 mg/kg is 100%.

Which ED50 [1, 4] does the source give for `CCN(CC)CCNC(=O)c1cc(Cl)c(N)cc1OC(C)C(C)=O` (centres unmarked) [Example 7, 4-Amino-2-(butan-2-on-3-yl)oxy-5-chloro-N-[2-(diethylamino)ethyl]benzamide] here?
The ED50 was over 3 mg/kg.

What about the inhibition in vivo at 3 mg/kg ([2]; 3 mg/kg, i.v. × 2) of the same compound?
Its inhibition in vivo at 3 mg/kg is 95%.

What does the source list for `CCN(CC)CCNC(=O)c1cc(Cl)c(N)cc1OC1CCCCC1=O` (centres unmarked) [Example 9, 4-Amino-5-chloro-2-(cyclohexanon-2-yl)oxy-N-[2-(diethylamino)ethyl]benzamide]?
ED50 [1, 4]: > 3 mg/kg; inhibition in vivo at 3 mg/kg ([2]; 3 mg/kg, i.v. × 2): 100%

Which results are given for `CCN(CC)CCNC(=O)c1cc(Cl)c(N)cc1OCC(C)=NO` [Example 10, 4-Amino-5-chloro-N-[2-(diethylamino)ethyl]-2-[(2-hydroxyimino)propan-1-yl]oxybenzamide]?
ED50 [1, 4]: > 3 mg/kg; inhibition in vivo at 3 mg/kg ([2]; 3 mg/kg, i.v. × 2): 100%

With `CCN(CC)CCNC(=O)c1cc(Cl)c(N)cc1OCC(C)O` (centres unmarked) [Example 12, 4-Amino-5-chloro-N-[2-(diethylamino)ethyl]-2-(2-hydroxypropan-1-yl)oxybenzamide] as the compound, how does the ED50 [1, 4] read?
Its ED50 is over 3 mg/kg.

What about the inhibition in vivo at 3 mg/kg ([2]; 3 mg/kg, i.v. × 2) of the same compound?
The inhibition in vivo at 3 mg/kg was 86%.

Which ED50 [1, 4] does the source give for `CCN(CC)CCNC(=O)c1cc(Cl)c(N)cc1OCC#N` [Example 13, 4-Amino-5-chloro-2-cyanomethoxy-N-[2-(diethylamino)ethyl]benzamide] here?
Its ED50 is over 3 mg/kg.

What about the inhibition in vivo at 3 mg/kg ([2]; 3 mg/kg, i.v. × 2) of the same compound?
Its inhibition in vivo at 3 mg/kg is 90%.

For `CCN(CC)CCNC(=O)c1cc(Cl)c(N)cc1OCC(=O)OC` [Example 15, 4-Amino-5-chloro-N-[2-(diethylamino)ethyl]-2-(2-methoxy-2-oxoethoxy)benzamide], which ED50 [1, 4] is on record?
Its ED50 is over 3 mg/kg.

What about the inhibition in vivo at 3 mg/kg ([2]; 3 mg/kg, i.v. × 2) of the same compound?
The inhibition in vivo at 3 mg/kg was 30%.

`CN(C)CCNC(=O)c1cc(Cl)c(N)cc1O` [Example 17, 4-Amino-5-chloro-N-[2-(dimethylamino)ethyl]-2-hydroxybenzamide] was tested. Which activation at 10 µM ([3]; at 10 μM, read-out: Average % Maximum Increase) did it give?
The activation at 10 µM was 41%.

And the EC30 ([3]; effective concentration30, read-out: EC30 (95% C.L.))?
Its EC30 is 5.4 µM.

What about the EC50 ([3]; effective concentration50, read-out: EC50 (95% C.L.)) of the same compound?
The EC50 was 15 µM.

And the minimal effective concentration ([3]; read-out: Minimum Effective Concentration)?
The minimal effective concentration was 0.3 µM.

How did the ED50 [1, 4] turn out when `CCN(CC)CCNC(=O)c1cc(Cl)c(N)cc1OCC1COC(C)(C)O1` (centres unmarked) [Example 18, 4-Amino-5-chloro-N-[2-(diethylamino)ethyl]-2-(2,2-dimethyl-1,3-dioxalan-4-yl)methoxybenzamide] was run?
The ED50 was over 3 mg/kg.

What about the inhibition in vivo at 3 mg/kg ([2]; 3 mg/kg, i.v. × 2) of the same compound?
The inhibition in vivo at 3 mg/kg was 72%.
